Measurements: ChEMBL document CHEMBL1201862, “PubChem BioAssay data set” (2004)
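1) Cells in 96-well plates. 2) Compound, 48 h, 5 concentrations. 3) Linear interpolation between surrounding doses. 4) Unreached endpoint = highest concentration. Abbreviation: GI50, concentration required for 50% inhibition of growth.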 Active and inactive are the calls of the source. No stated cut-off is given here; in the data, active = GI50 up to about 1.1 µM and inactive = higher.

How the values were obtained:
Assay in all cases: NCI anticancer screen, dose series, 48 h
A549 = system: A549
CAKI-1 = system: CAKI-1
CCRF-CEM = system: CCRF-CEM
COLO 205 = system: COLO 205
DU-145 = system: DU-145
HOP-92 = system: HOP-92
IGROV-1 = system: IGROV-1
K562 = system: K562
M14 = system: M14
MDA-MB-231 = system: MDA-MB-231
MOLT-4 = system: MOLT-4
NCI-H226 = system: NCI-H226
NCI-H460 = system: NCI-H460
OVCAR-3 = system: OVCAR-3
PC-3 = system: PC-3
RXF 393 = system: RXF 393
SF-268 = system: SF-268
SK-MEL-28 = system: SK-MEL-28
SNB-19 = system: SNB-19
SR = system: SR

Measured: GI50

Cc1c(CCN2CCOCC2)c(N2CCOCC2)n2c(nc3ccccc32)c1C#N
inactive: A549 > 10 µM | CAKI-1 > 10 µM | CCRF-CEM > 10 µM | COLO 205 > 10 µM | DU-145 > 10 µM | HOP-92 > 10 µM | IGROV-1 > 10 µM | K562 > 10 µM | M14 > 10 µM | MDA-MB-231 > 10 µM | MOLT-4 > 10 µM | NCI-H226 > 10 µM | NCI-H460 > 10 µM | OVCAR-3 > 10 µM | PC-3 > 10 µM | RXF 393 > 10 µM | SF-268 > 10 µM | SK-MEL-28 > 10 µM | SNB-19 > 10 µM | SR > 10 µM

CCOC(=O)C(=CNC(=S)Nc1c(CC)cccc1CC)C(=O)OCC
inactive: A549 > 100 µM | CAKI-1 > 100 µM | CCRF-CEM > 100 µM | COLO 205 > 100 µM | DU-145 > 100 µM | HOP-92 94.4 µM | IGROV-1 > 100 µM | K562 > 100 µM | M14 > 100 µM | MDA-MB-231 > 100 µM | MOLT-4 > 100 µM | NCI-H226 > 100 µM | NCI-H460 > 100 µM | OVCAR-3 > 100 µM | PC-3 > 100 µM | RXF 393 > 100 µM | SF-268 > 100 µM | SK-MEL-28 > 100 µM | SNB-19 > 100 µM | SR > 100 µM

O=C1CCc2c(sc3ncnc(Nc4cccc(Br)c4)c23)C1
inactive: A549 3.11 µM | CAKI-1 2.09 µM | CCRF-CEM 2.08 µM | COLO 205 7.36 µM | DU-145 3.42 µM | HOP-92 2.54 µM | IGROV-1 1.68 µM | K562 2.75 µM | M14 3.42 µM | MDA-MB-231 3.27 µM | MOLT-4 3.2 µM | NCI-H226 4.06 µM | NCI-H460 3.99 µM | OVCAR-3 2.51 µM | PC-3 3.07 µM | RXF 393 2.73 µM | SF-268 3.92 µM | SK-MEL-28 24.2 µM | SNB-19 4.12 µM | SR 2.33 µM

Cc1ccc([S+](c2ccccc2)c2cc(C)ccc2C)cc1.O=C(OC(C(=O)[O-])C(OC(=O)c1ccccc1)C(=O)O)c1ccccc1 (stereo not given)
inactive: A549 8.87 µM | CAKI-1 14.6 µM | CCRF-CEM 12.8 µM | COLO 205 4.26 µM | DU-145 34.2 µM | HOP-92 13.5 µM | IGROV-1 10.7 µM | K562 2.53 µM | M14 18.9 µM | MDA-MB-231 16.9 µM | MOLT-4 26.5 µM | NCI-H226 15.4 µM | NCI-H460 10.7 µM | OVCAR-3 3.14 µM | PC-3 2.83 µM | RXF 393 34 µM | SF-268 22.1 µM | SK-MEL-28 17.6 µM | SNB-19 4.83 µM | SR 1.85 µM

COC(=O)[C@@H]1C=C[C@H](OC2OC(COC(C)=O)C(OC(C)=O)C(OC(C)=O)C2OC(C)=O)n2c(=O)n(-c3ccccc3)c(=O)n21 (stereo not given in full)
inactive: A549 14.7 µM | CAKI-1 1.2 µM | CCRF-CEM 1.48 µM | COLO 205 1.85 µM | DU-145 4.75 µM | HOP-92 1.77 µM | IGROV-1 3.87 µM | K562 1.61 µM | M14 2.36 µM | MDA-MB-231 2.7 µM | MOLT-4 2.13 µM | NCI-H226 12.2 µM | NCI-H460 14 µM | OVCAR-3 1.74 µM | PC-3 2.77 µM | RXF 393 1.95 µM | SF-268 2.51 µM | SK-MEL-28 2.33 µM | SNB-19 11.4 µM | SR 1.82 µM

Cn1cnc([N+](=O)[O-])c1[Se]c1nc(N)nc2c1ncn2C1OC(CO)C(O)C1O (stereo not given)
inactive: A549 > 100 µM | CAKI-1 > 100 µM | CCRF-CEM > 100 µM | COLO 205 > 100 µM | DU-145 > 100 µM | HOP-92 > 100 µM | IGROV-1 > 100 µM | K562 > 100 µM | M14 > 100 µM | MDA-MB-231 > 100 µM | MOLT-4 > 100 µM | NCI-H226 > 100 µM | NCI-H460 > 100 µM | OVCAR-3 > 100 µM | PC-3 > 100 µM | RXF 393 > 100 µM | SF-268 > 100 µM | SK-MEL-28 > 100 µM | SNB-19 > 100 µM | SR > 100 µM

COC(=O)NCCc1n[nH]c2c1C(=O)C=C(OC)C2=O
inactive: A549 46.7 µM | CAKI-1 24.5 µM | CCRF-CEM 21.1 µM | COLO 205 24.8 µM | DU-145 52.6 µM | HOP-92 21.5 µM | IGROV-1 19.9 µM | K562 17.5 µM | M14 19.7 µM | MDA-MB-231 16.1 µM | MOLT-4 19.9 µM | NCI-H226 23 µM | NCI-H460 > 100 µM | OVCAR-3 17.9 µM | PC-3 34.9 µM | RXF 393 17.6 µM | SF-268 18.5 µM | SK-MEL-28 20.1 µM | SNB-19 21.3 µM | SR 15 µM
